Experimental data: ChEMBL document CHEMBL3120075 (J Med Chem, 2014)

Columns and labels:
[1] = AUClast in fasted healthy human at 100 mg/kg, po; assay type: ADME, organism-based; design: time 0 - last, dose 100 mg/kg, route oral; settings: plasma
[2] = Oral bioavailability in beagle dog at 0.5 mg/kg; assay type: ADME, organism-based, Canis lupus familiaris; settings: in vivo
[3] = AUC (infinity) in fasted healthy human at 60 mg/kg, po; assay type: ADME, organism-based; design: time infinity, dose 60 mg/kg, route oral; settings: plasma
[4] = Plasma concentration in fasted healthy human at 100 mg/kg, po at 24 hrs; assay type: ADME, organism-based; design: dose 100 mg/kg, route oral
Hepatitis C virus [5] = assay: Antiviral activity against HCV genotype 1b Con1 infected in human HuH7 cells assessed as inhibition of viral RNA replication after 3 days by renilla luciferase reporter gene assay in presence of 10% BSA; assay type: functional, organism-based, Hepacivirus hominis; settings: isolate Con1, Huh-7, 72 h
Hepatitis C virus [6] = assay: Ratio of EC50 for HCV genotype 1a H77 infected in human HuH7 cells in presence of 10% BSA to EC50 for HCV genotype 1a H77 infected in human HuH7 cells; assay type: functional, Hepacivirus hominis, Huh-7
[7] = AUC (infinity) in fasted healthy human at 10 mg/kg, po; assay type: ADME, organism-based; design: time infinity, dose 10 mg/kg, route oral; settings: plasma
[8] = Cmax in fasted healthy human at 100 mg/kg, po; assay type: ADME, organism-based; design: dose 100 mg/kg, route oral; settings: in vivo
[9] = Half life in fasted healthy human at 60 mg/kg, po; assay type: ADME, organism-based; design: dose 60 mg/kg, route oral; settings: in vivo
[10] = Cmax in fasted healthy human at 30 mg/kg, po; assay type: ADME, organism-based; design: dose 30 mg/kg, route oral; settings: in vivo
[11] = Cmax in fasted healthy human at 3 mg/kg, po; assay type: ADME, organism-based; design: dose 3 mg/kg, route oral; settings: in vivo
[12] = Oral bioavailability in Sprague-Dawley rat at 2 mg/kg; assay type: ADME, organism-based; settings: in vivo
Hepatitis C virus [13] = assay: Ratio of EC50 for HCV genotype 1b Con1 infected in human HuH7 cells in presence of human serum to EC50 for HCV genotype 1b Con1 infected in human HuH7 cells; assay type: functional, Hepacivirus hominis, isolate Con1, Huh-7
Hepatitis C virus [14] = assay: Antiviral activity against HCV genotype 1b Con1 infected in human HuH7 cells assessed as inhibition of viral RNA replication after 3 days by renilla luciferase reporter gene assay; assay type: functional, organism-based, Hepacivirus hominis; settings: isolate Con1, Huh-7, 72 h
[15] = Clearance in cynomolgus monkey at 0.5 mg/kg, iv; assay type: ADME, organism-based, Macaca fascicularis; design: dose 0.5 mg/kg, route intravenous; settings: in vivo
Hepatitis C virus [16] = assay: Antiviral activity against HCV genotype 1a H77 infected in human HuH7 cells assessed as inhibition of viral RNA replication after 3 days by renilla luciferase reporter gene assay; assay type: functional, organism-based, Hepacivirus hominis; settings: genotype 1a H77, Huh-7, 72 h
[17] = AUClast in fasted healthy human at 10 mg/kg, po; assay type: ADME, organism-based; design: time 0 - last, dose 10 mg/kg, route oral; settings: plasma
[18] = Half life in fasted healthy human at 3 mg/kg, po; assay type: ADME, organism-based; design: dose 3 mg/kg, route oral; settings: in vivo
[19] = Tmax in fasted healthy human at 60 mg/kg, po; assay type: ADME, organism-based; design: dose 60 mg/kg, route oral; settings: in vivo
[20] = Mean residence time in beagle dog at 0.2 mg/kg, iv; assay type: ADME, organism-based, Canis lupus familiaris; design: dose 0.2 mg/kg, route intravenous; settings: in vivo
[21] = Metabolic stability in beagle dog liver microsomes assessed as hepatic extraction at 3 uM after 60 mins by LC/MS/MS analysis; assay type: ADME, Canis lupus familiaris; settings: read-out: ERH
[22] = Half life in beagle dog at 0.2 mg/kg, iv; assay type: ADME, organism-based, Canis lupus familiaris; design: dose 0.2 mg/kg, route intravenous; settings: in vivo
[23] = Volume of distribution at steady state in cynomolgus monkey at 0.5 mg/kg, iv; assay type: ADME, organism-based, Macaca fascicularis; design: dose 0.5 mg/kg, route intravenous; settings: in vivo, read-out: Vdss
[24] = Volume of distribution at steady state in Sprague-Dawley rat at 1 mg/kg, iv; assay type: ADME, organism-based; design: dose 1 mg/kg, route intravenous; settings: in vivo, read-out: Vdss
[25] = AUC (infinity) in fasted healthy human at 3 mg/kg, po; assay type: ADME, organism-based; design: time infinity, dose 3 mg/kg, route oral; settings: plasma
[26] = Ratio of EC50 for HCV genotype 1a H77 infected in human HuH7 cells in presence of 10% BSA to plasma concentration in fasted healthy human at 100 mg, po at 24 hrs
[27] = Ratio of EC50 for HCV genotype 1a H77 infected in human HuH7 cells in presence of human serum to plasma concentration in fasted healthy human at 100 mg, po at 24 hrs
[28] = Ratio of EC50 for HCV genotype 1a H77 infected in human HuH7 cells in presence of human serum to plasma concentration in fasted healthy human at 3 mg/kg, po at 24 hrs; design: species or system Huh-7
[29] = Oral bioavailability in cynomolgus monkey at 1 mg/kg; assay type: ADME, organism-based, Macaca fascicularis; settings: in vivo
[30] = Clearance in Sprague-Dawley rat at 1 mg/kg, iv; assay type: ADME, organism-based; design: dose 1 mg/kg, route intravenous; settings: in vivo
[31] = Plasma concentration in fasted healthy human at 30 mg/kg, po at 24 hrs; assay type: ADME, organism-based; design: dose 30 mg/kg, route oral
[32] = Mean residence time in cynomolgus monkey at 0.5 mg/kg, iv; assay type: ADME, organism-based, Macaca fascicularis; design: dose 0.5 mg/kg, route intravenous; settings: in vivo
[33] = Plasma concentration in fasted healthy human at 10 mg/kg, po at 24 hrs; assay type: ADME, organism-based; design: dose 10 mg/kg, route oral

- AUC(0-t) [1]: 7.05 µM·h
- bioavailability [2]: 53%
- AUC(0-inf) [3]: 5.3 µM·h
- concentration at 24 h [4]: 98.8 nM
- EC50 (Hepatitis C virus [5]): 0.027 nM
- AUC(0-inf) [7]: 0.695 µM·h
- Cmax [8]: 242 nM
- half-life [9]: 44.2 h
- Cmax [10]: 82.2 nM
- Cmax [11]: 6.75 nM
- bioavailability [12]: 32.5%
- EC50 (Hepatitis C virus [14]): 0.004 nM
- clearance [15]: 2.83 mL/min/kg
- EC50 (Hepatitis C virus [16]): 0.031 nM
- AUC(0-t) [17]: 0.558 µM·h
- half-life [18]: 45.2 h
- Tmax [19]: 5.5 h
- MRT [20]: 9.2 h
- hepatic extraction ratio at 1 h, 3 µM [21]: < 0.095
- half-life [22]: 7.41 h
- Vd [23]: 2.15 L/kg
- Vd [24]: 2.66 L/kg
- AUC(0-inf) [25]: 0.245 µM·h
- bioavailability [29]: 41.1%
- clearance [30]: 7.17 mL/min/kg
- concentration at 24 h [31]: 31.4 nM
- MRT [32]: 12.9 h
- concentration at 24 h [33]: 7.94 nM
Compound: COC(=O)N[C@H](C(=O)N1CC2(CC2)C[C@H]1c1nc(-c2ccc3c(c2)C(F)(F)c2cc(-c4ccc5[nH]c([C@@H]6[C@H]7CC[C@H](C7)N6C(=O)[C@@H](NC(=O)OC)C(C)C)nc5c4)ccc2-3)c[nH]1)C(C)C
- Ratio EC50 (Hepatitis C virus [6]): 6.7
- Ratio EC50 (Hepatitis C virus [13]): 6.7
- Ratio [26]: 470
- Ratio [27]: 470
- Ratio [28]: 12
